One assay addresses T1, EBV DNA polymerase (Epstein-Barr virus, UniProt P03198).
T1 construct: made in house
The assay is described as follows: Viral polymerase inhibition, EBV. In kind it is biochemical. An excerpt: Viral DNA polymerases (HSV-1, HSV-2, EBV) were purified by previously published methods (Derce, D. K. F. Bastow, and Y. C. Cheng (1982) J. Boil. Chem. 257:10251-10260; Ostrander, M., and Y. C. Cheng (1980) Biochim. Biophys. Acta 609:232-245; Tan, R. S., A. Datta. and Y. C. Cheng (1982) J. Virol. 44:893-899). These procedures generally included sequential chromatography on DEAE-cellulose. HIV reverse transcriptase was purified by antibody affinity column chromatography as descrbed (Starnes. M. C. and Y. C. Cheng (1989) J. Biol. Chem. 264:7073-7077). The purified enzymes were dialyzed against and stored in 50 mM Tris-HCl (pH 7.5) containing 1 mM each of DTT, EDTA and PMSF plus 30% glycerol. Mammalian DNA polymerases alpha, beta, gamma, and delta were partially purified from K562 celles (chronic myelogenous leukemia tissue culture line). Briefly, washed cell pellets were extracted and passed throgh DEAE-cellulose in the presence of 300 mM KPO4 (pH 7.5) as previously described (Starnes, M. C., and Y. C. Cheng (1987) J. Biol. Chem 282:988-981) to remove DNA. The column flow-through fractions were dialyzed against buffer which contained 50 mM Tris-HCl (pH 7.5), and fractionated on a single-stranded DNA-cellulose column with a 0-1M KCl gradient.
Standard assays were run at 37° C. and contained: 50 mM Tris, pH b 8.0, 0.5 mM DTT, 8 mM MgCl2, 100 μg/mL BSA, 150 μg/mL gapped calf thymus DNA, 100 μM each dATP, dCTP, dGTP, 10 .parallel.M [^3 H]-dTTP, and 1-5 .parallel.L enzyme in a final volume of 50 .parallel.L. Modified assays for pH dependence inhibition studies with PFA (1) and α--oxo phosphonates (4 and 5) contained 50 mM Hepes, pH 8.2-6.5, 8 mM MgCl2, 100 mM KCl, 100 μg/ml BSA, 0.5 A260 units/ml of poly(rA).(dT)10, 100 μM [^3 H]dTTP, and 1.5 .parallel.L enzyme in a final volume of 50 μL. Samples were processed as described above.

The subject of the next assay is HIV-1 (HTLV-IIIB). The assay is described as follows: HIV inhibition in cell culture, p24 antigen capture assay in H9 lymphocytes. Format: cell-based. As for the experimental part: In addition to testing the activity of TPFA against HIV enzyme, the activity against the virus itself was also determined in accordance with the following protocol. The experimental protocol involved incubatino of H9 lymphocytes (3.5×10^6 cells/ml) in the presence or absence of HIV-1 (HTLV-IIIB) for one hour at 37° C. Cells were washed thoroughly to remove unabsorbed virions and re-suspended at 4×10^5 cells/ml in culture medium. Aliquots (1 ml) were placed in wells of 24 well culture plates containing any equal volume of test compound (diluted in culture medium). After incubation for three days at 37° C., cell density of uninfected cultures was determined to assess toxicity of the test compound. A p24 antigen capture was used to determine the level of HIV infection in HIV treated cultures. The ability of test compounds to inhibit HIV replication was measured at different concentrations relative to infected, untreated cultures. Test compounds were considered to be active if p24 levels were <70% of infected, untreated cultures. Cytotoxicity in uninfect4ed H9 cells was not detected.

The mark [1] stands for this setting: Human immunodeficiency virus 1, IIIB, H9, 72 h, read-out: p24 Ave (%).

We go through 2 compounds from US5072032A, “Preparation and use of thiophosphonates and thio-analogues of phosphonoformic acid” (priority 1989, dated 1991).

SMILES strings stand for the structures. Read-outs that look alike come from different tables or passages of the source.

T1 sequence (P03198 whole entry): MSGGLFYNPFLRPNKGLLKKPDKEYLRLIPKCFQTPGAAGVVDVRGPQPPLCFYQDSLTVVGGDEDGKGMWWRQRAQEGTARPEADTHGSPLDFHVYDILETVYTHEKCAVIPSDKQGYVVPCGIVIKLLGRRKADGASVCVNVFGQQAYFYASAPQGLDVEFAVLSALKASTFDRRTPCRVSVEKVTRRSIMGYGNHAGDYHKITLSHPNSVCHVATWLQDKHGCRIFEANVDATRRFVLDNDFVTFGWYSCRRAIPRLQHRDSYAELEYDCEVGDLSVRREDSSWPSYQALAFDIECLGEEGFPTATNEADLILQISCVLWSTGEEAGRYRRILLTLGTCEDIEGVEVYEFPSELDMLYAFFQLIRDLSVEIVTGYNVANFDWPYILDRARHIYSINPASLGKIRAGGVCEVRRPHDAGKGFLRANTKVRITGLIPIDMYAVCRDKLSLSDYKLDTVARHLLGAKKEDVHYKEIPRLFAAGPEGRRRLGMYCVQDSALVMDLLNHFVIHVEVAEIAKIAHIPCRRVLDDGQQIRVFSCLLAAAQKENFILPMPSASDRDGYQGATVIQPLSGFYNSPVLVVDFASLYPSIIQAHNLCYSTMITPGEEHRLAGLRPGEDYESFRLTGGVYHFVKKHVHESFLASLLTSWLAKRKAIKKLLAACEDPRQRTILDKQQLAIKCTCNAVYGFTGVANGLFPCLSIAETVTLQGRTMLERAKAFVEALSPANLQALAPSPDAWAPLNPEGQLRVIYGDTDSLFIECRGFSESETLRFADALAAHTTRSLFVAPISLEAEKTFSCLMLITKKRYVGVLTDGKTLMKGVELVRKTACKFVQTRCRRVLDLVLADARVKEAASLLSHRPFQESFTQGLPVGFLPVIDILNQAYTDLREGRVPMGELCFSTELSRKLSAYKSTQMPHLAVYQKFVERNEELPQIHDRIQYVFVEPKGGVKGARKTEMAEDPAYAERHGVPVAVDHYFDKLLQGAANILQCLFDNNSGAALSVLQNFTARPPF

As for `O=C(O)P(=O)(O)O` [PFA, phosphonoformic acid], the IC50 at EBV DNA polymerase (EBV, "activated" DNA, read-out: ID50 (the source's name)) was determined as 1 µM. Moreover, the activity at 1.9 µg/mL in the assay on HIV-1 (HTLV-IIIB) (Human immunodeficiency virus 1, IIIB, H9, 72 h, drug conc. 1.9 μg/mL, % of infected untreated control p24, read-out: p24 Ave (%)) worked out at 88%. The activity at 7.5 µg/mL in the assay with HIV-1 (HTLV-IIIB) (Human immunodeficiency virus 1, IIIB, H9, 72 h, drug conc. 7.5 μg/mL, % of infected untreated control p24, read-out: p24 Ave (%)) was 35%. Besides, the activity at 30 µg/mL with HIV-1 (HTLV-IIIB) (Human immunodeficiency virus 1, IIIB, H9, 72 h, drug conc. 30 μg/mL, % of infected untreated control p24, read-out: p24 Ave (%)) is 10%. The activity at 120 µg/mL in the assay on HIV-1 (HTLV-IIIB) (Human immunodeficiency virus 1, IIIB, H9, 72 h, drug conc. 120 μg/mL, % of infected untreated control p24, read-out: p24 Ave (%)) was -2%. Further, the “Inhibition Score” value is “** (**25-49% control p24)” in the assay on HIV-1 (HTLV-IIIB) (drug conc. 7.5 μg/mL), “*** (***<25% control p24)” with HIV-1 (HTLV-IIIB) (drug conc. 30 μg/mL) and “*** (***<25% control p24)” in the assay on HIV-1 (HTLV-IIIB) (drug conc. 120 μg/mL).
In the case of `O=C(O)P(O)(O)=S` [TPFA, thiophosphonoformic acid], the IC50 against EBV DNA polymerase came out at 70 µM. The “effectiveness of TPFA relative to PFA” value at EBV DNA polymerase (EBV enzyme, ratio of ID50 values of Table I) is listed as “more than seventy times less effective”. Moreover, in the assay with HIV-1 (HTLV-IIIB) (setting [1]), the activity at 0.1 µg/mL turned out to be 139%, the activity at 0.5 µg/mL turned out to be 117%, the activity at 2 µg/mL amounted to 90% and the activity at 10 µg/mL is 35%. In addition, in the assay on HIV-1 (HTLV-IIIB) (setting [1]), the activity at 50 µg/mL was determined as 0% and the activity at 200 µg/mL is -3%. Moreover, in the assay on HIV-1 (HTLV-IIIB) (drug conc. 10 μg/mL), the “Inhibition Score” value is “** (**25-49% control p24)”. The “Inhibition Score” value in the assay on HIV-1 (HTLV-IIIB) (drug conc. 50 μg/mL) is reported as “*** (***<25% control p24)”. The “Inhibition Score” value with HIV-1 (HTLV-IIIB) (drug conc. 200 μg/mL) is reported as “*** (***<25% control p24)”.
